Laboratory results: US12503461B2, “Pesticidally active heterocyclic derivatives with sulfur and sulfoximine containing substituents” (SYNGENTA CROP PROTECTION AG, priority 2019, dated 2025)

Key:
Type in all cases: in vivo
[1] = system: Euschistus heros (Neotropical Brown Stink Bug); experiment: Example B2: Euschistus heros (neotropical brown stink bug), sprayed soybean leaves, N2 nymphs; settings: 120 h, application rate of 200 ppm, 5 days after infestation, in comparison to untreated samples, read-out: effect in at least one of the two categories (mortality or growth inhibition)
Procedure: Example B2: Euschistus heros (Neotropical Brown Stink Bug
Soybean leaves on agar in 24-well microtiter plates were sprayed with aqueous test solutions prepared from 10′000 ppm DMSO stock solutions. After drying the leaves were infested with N2 nymphs. The samples were assessed for mortality and growth inhibition in comparison to untreated samples 5 days after infestation.

[2] = system: Spodoptera littoralis (Egyptian Cotton Leaf Worm); experiment: Example B7: Spodoptera littoralis (Egyptian cotton leaf worm), sprayed cotton leaf discs, L1 larvae; settings: foliar, 72 h, application rate of 200 ppm, 3 days after infestation, in comparison to untreated samples
Procedure: Example B7: Spodoptera littoralis (Egyptian Cotton Leaf Worm
Cotton leaf discs were placed onto agar in 24-well microtiter plates and sprayed with aqueous test solutions prepared from 10′000 ppm DMSO stock solutions. After drying the leaf discs were infested with five L1 larvae. The samples were assessed for mortality, anti-feeding effect, and growth inhibition in comparison to untreated samples 3 days after infestation. Control of Spodoptera littoralis by a test sample is given when at least one of the categories mortality, anti-feedant effect, and growth inhibition is higher than the untreated sample.

[3] = system: Frankliniella occidentalis (Western Flower Thrips); experiment: Example B3: Frankliniella occidentalis (western flower thrips), sprayed sunflower leaf discs; settings: foliar, 168 h, application rate of 200 ppm, population of mixed ages, 7 days after infestation
Procedure: Example B3: Frankliniella occidentalis (Western Flower Thrips
Sunflower leaf discs were placed on agar in 24-well microtiter plates and sprayed with aqueous test solutions prepared from […] stock solutions. After drying the leaf discs were infested with a Frankliniella population of mixed ages. The samples were assessed for mortality 7 days after infestation.

[4] = system: Diabrotica balteata (Corn Root Worm); experiment: Example B1: Diabrotica balteata (corn root worm), sprayed maize sprouts on agar, L2 larvae; settings: 96 h, application rate of 200 ppm, 4 days after infestation, in comparison to untreated samples, read-out: effect in at least one of the two categories (mortality or growth inhibition)
Procedure: Example B1: Diabrotica balteata (Corn Root Worm
Maize sprouts placed onto an agar layer in 24-well microtiter plates were treated with aqueous test solutions prepared from 10′000 ppm DMSO stock solutions by spraying. After drying, the plates were infested with L2 larvae (6 to 10 per well). The samples were assessed for mortality and growth inhibition in comparison to untreated samples 4 days after infestation.

[5] = system: Plutella xylostella (Diamond Back Moth); experiment: Example B4: Plutella xylostella (diamond back moth), treated artificial diet, eggs; settings: 192 h, application rate of 200 ppm, 8 days after infestation, in comparison to untreated samples, read-out: effect in at least one of the two categories (mortality or growth inhibition)
Procedure: Example B4: Plutella xylostella (Diamond Back Moth
24-well microtiter plates with artificial diet were treated with aqueous test solutions prepared from 10′000 ppm DMSO stock solutions by pipetting. After drying, Plutella eggs were pipetted through a plastic stencil onto a gel blotting paper and the plate was closed with it. The samples were assessed for mortality and growth inhibition in comparison to untreated samples 8 days after infestation.

[6] = system: Myzus persicae (Green Peach Aphid); experiment: Example B5: Myzus persicae (green peach aphid), feeding/contact activity, sprayed sunflower leaf discs; settings: foliar, 144 h, application rate of 200 ppm, aphid population of mixed ages, 6 days after infestation
Procedure: Example B5: Myzus persicae (Green Peach Aphid). Feeding/Contact Activity
Sunflower leaf discs were placed onto agar in a 24-well microtiter plate and sprayed with aqueous test solutions prepared from 10′000 ppm DMSO stock solutions. After drying, the leaf discs were infested with an aphid population of mixed ages. The samples were assessed for mortality 6 days after infestation.

CCS(=O)(=O)c1cc(-c2nccc(C(F)(F)F)n2)cnc1-c1nc2cc(S(=N)(=O)C(F)(F)F)ccc2o1 (stereo not drawn) [P40, [2-[3-ethylsulfonyl-5-[4-(trifluoromethyl)pyrimidin-2-yl]-2-pyridyl]-1,3-benzoxazol-5-yl]-imino-oxo-(trifluoromethyl)-λ^6-sulfane]
≥ 80%: effect (mortality or growth inhibition) at 200 ppm [1] | percent control (mortality, anti-feeding effect or growth inhibition) at 200 ppm [2] | mortality at 200 ppm [3] | percent effect (mortality or growth inhibition) at 200 ppm [4] | percent effect (mortality or growth inhibition) at 200 ppm [5]

CCN=S(=O)(c1ccc2oc(-c3ncc(OCC(C)(F)F)cc3S(=O)(=O)CC)nc2c1)C(F)(F)F (stereo not drawn) [P27, [2-[5-(2,2-difluoropropoxy)-3-ethylsulfonyl-2-pyridyl]-1,3-benzoxazol-5-yl]-ethylimino-oxo-(trifluoromethyl)-λ^6-sulfane]
≥ 80%: effect (mortality or growth inhibition) at 200 ppm [1] | percent control (mortality, anti-feeding effect or growth inhibition) at 200 ppm [2] | mortality at 200 ppm [3] | mortality at 200 ppm [6] | percent effect (mortality or growth inhibition) at 200 ppm [4] | percent effect (mortality or growth inhibition) at 200 ppm [5]

CCS(=O)(=O)c1cccnc1-c1nc2cc(S(=O)(=NC)C(F)(F)F)ccc2o1 (stereo not drawn) [P18, [2-(3-ethylsulfonyl-2-pyridyl)-1,3-benzoxazol-5-yl]-methylimino-oxo-(trifluoromethyl)-λ^6-sulfane]
≥ 80%: effect (mortality or growth inhibition) at 200 ppm [1] | percent control (mortality, anti-feeding effect or growth inhibition) at 200 ppm [2] | mortality at 200 ppm [6] | percent effect (mortality or growth inhibition) at 200 ppm [4] | percent effect (mortality or growth inhibition) at 200 ppm [5]

CCN=S(=O)(c1ccc2oc(-c3ncc(N=S(C)(C)=O)cc3S(=O)(=O)CC)nc2c1)C(F)(F)F (stereo not drawn) [P2, [2-[5-[[dimethyl(oxo)-λ^6-sulfanylidene]amino]-3-ethylsulfonyl-2-pyridyl]-1,3-benzoxazol-5-yl]-ethylimino-oxo-(trifluoromethyl)-λ^6-sulfane]
≥ 80%: effect (mortality or growth inhibition) at 200 ppm [1] | percent control (mortality, anti-feeding effect or growth inhibition) at 200 ppm [2] | mortality at 200 ppm [3] | percent effect (mortality or growth inhibition) at 200 ppm [4] | percent effect (mortality or growth inhibition) at 200 ppm [5]

CCN=S(=O)(c1ccc2c(c1)nc(-c1ncc(-c3ncc(C#N)cn3)cc1S(=O)(=O)CC)n2C)C(F)(F)F (stereo not drawn) [P53, 2-[5-ethylsulfonyl-6-[5-[N-ethyl-S-(trifluoromethyl)sulfonimidoyl]-1-methyl-benzimidazol-2-yl]-3-pyridyl]pyrimidine-5-carbonitrile]
≥ 80%: effect (mortality or growth inhibition) at 200 ppm [1] | percent control (mortality, anti-feeding effect or growth inhibition) at 200 ppm [2] | mortality at 200 ppm [6] | percent effect (mortality or growth inhibition) at 200 ppm [4] | percent effect (mortality or growth inhibition) at 200 ppm [5]

CCS(=O)(=O)c1cc(-c2ncc(C#N)cn2)cnc1-c1nc2cc(S(=N)(=O)C(F)(F)F)ccc2n1C (stereo not drawn) [P52, 2-[5-ethylsulfonyl-6-[1-methyl-5-(trifluoromethylsulfonimidoyl)benzimidazol-2-yl]-3-pyridyl]pyrimidine-5-carbonitrile]
≥ 80%: effect (mortality or growth inhibition) at 200 ppm [1] | percent control (mortality, anti-feeding effect or growth inhibition) at 200 ppm [2] | mortality at 200 ppm [6] | percent effect (mortality or growth inhibition) at 200 ppm [4] | percent effect (mortality or growth inhibition) at 200 ppm [5]

CCN=S(=O)(c1ccc2oc(-c3ncccc3S(=O)(=O)CC)nc2c1)C(F)(F)F (stereo not drawn) [P19, ethylimino-[2-(3-ethylsulfonyl-2-pyridyl)-1,3-benzoxazol-5-yl]-oxo-(trifluoromethyl)-λ^6-sulfane]
≥ 80%: effect (mortality or growth inhibition) at 200 ppm [1] | percent control (mortality, anti-feeding effect or growth inhibition) at 200 ppm [2] | mortality at 200 ppm [6] | percent effect (mortality or growth inhibition) at 200 ppm [4] | percent effect (mortality or growth inhibition) at 200 ppm [5]

CCS(=O)(=O)c1cc(Oc2ccccn2)cnc1-c1nc2cc(S(=N)(=O)C(F)(F)F)ccc2n1C (stereo not drawn) [P50, [2-[3-ethylsulfonyl-5-(2-pyridyloxy)-2-pyridyl]-1-methyl-benzimidazol-5-yl]-imino-oxo-(trifluoromethyl)-λ^6-sulfane]
≥ 80%: effect (mortality or growth inhibition) at 200 ppm [1] | percent control (mortality, anti-feeding effect or growth inhibition) at 200 ppm [2] | mortality at 200 ppm [6] | percent effect (mortality or growth inhibition) at 200 ppm [4] | percent effect (mortality or growth inhibition) at 200 ppm [5]

CCN=S(=O)(c1ccc2oc(-c3ncc(C4CC4)cc3S(=O)(=O)CC)nc2c1)C(F)(F)F (stereo not drawn) [P11, [2-(5-cyclopropyl-3-ethylsulfonyl-2-pyridyl)-1,3-benzoxazol-5-yl]-ethylimino-oxo-(trifluoromethyl)-λ^6-sulfane]
≥ 80%: effect (mortality or growth inhibition) at 200 ppm [1] | percent control (mortality, anti-feeding effect or growth inhibition) at 200 ppm [2] | mortality at 200 ppm [6] | percent effect (mortality or growth inhibition) at 200 ppm [4] | percent effect (mortality or growth inhibition) at 200 ppm [5]

CCS(=O)(=O)c1cc(Oc2ccccn2)cnc1-c1nc2cc(S(=N)(=O)C(F)(F)F)ccc2o1 (stereo not drawn) [P9, [2-[3-ethylsulfonyl-5-(2-pyridyloxy)-2-pyridyl]-1,3-benzoxazol-5-yl]-imino-oxo-(trifluoromethyl)-λ^6-sulfane]
≥ 80%: effect (mortality or growth inhibition) at 200 ppm [1] | percent control (mortality, anti-feeding effect or growth inhibition) at 200 ppm [2] | mortality at 200 ppm [6] | percent effect (mortality or growth inhibition) at 200 ppm [4] | percent effect (mortality or growth inhibition) at 200 ppm [5]

CCS(=O)(=O)c1cc(OCC(C)(F)F)cnc1-c1nc2cc(S(=N)(=O)C(F)(F)F)ccc2o1 (stereo not drawn) [P26, [2-[5-(2,2-difluoropropoxy)-3-ethylsulfonyl-2-pyridyl]-1,3-benzoxazol-5-yl]-imino-oxo-(trifluoromethyl)-λ^6-sulfane]
≥ 80%: effect (mortality or growth inhibition) at 200 ppm [1] | percent control (mortality, anti-feeding effect or growth inhibition) at 200 ppm [2] | mortality at 200 ppm [3] | mortality at 200 ppm [6] | percent effect (mortality or growth inhibition) at 200 ppm [4] | percent effect (mortality or growth inhibition) at 200 ppm [5]

CCN=S(=O)(c1ccc2c(c1)nc(-c1ncc(Oc3ccccn3)cc1S(=O)(=O)CC)n2C)C(F)(F)F (stereo not drawn) [P51, ethylimino-[2-[3-ethylsulfonyl-5-(2-pyridyloxy)-2-pyridyl]-1-methyl-benzimidazol-5-yl]-oxo-(trifluoromethyl)-λ^6-sulfane]
≥ 80%: effect (mortality or growth inhibition) at 200 ppm [1] | percent control (mortality, anti-feeding effect or growth inhibition) at 200 ppm [2] | mortality at 200 ppm [6] | percent effect (mortality or growth inhibition) at 200 ppm [4] | percent effect (mortality or growth inhibition) at 200 ppm [5]

CCS(=O)(=O)c1cccnc1-c1nc2cc(S(=O)(=NC3CC3)C(F)(F)F)ccc2o1 (stereo not drawn) [P13, cyclopropylimino-[2-(3-ethylsulfonyl-2-pyridyl)-1,3-benzoxazol-5-yl]-oxo-(trifluoromethyl)-λ^6-sulfane]
≥ 80%: percent control (mortality, anti-feeding effect or growth inhibition) at 200 ppm [2] | mortality at 200 ppm [6] | percent effect (mortality or growth inhibition) at 200 ppm [4] | percent effect (mortality or growth inhibition) at 200 ppm [5]
